Converted amounts (≈) assume the structure as drawn.
Key:
[1] = Chemical hydrolysis in transport medium (HBSS); assay type: physicochemical; conditions: 53 μM and 106 μM in transport medium (HBSS pH7.4), stored at 4°C for 96 hours
Experimental: Solution of compound 1, 2 and 3 at 53 μM and 106 μM were prepared in Hank's balanced salt solution (HBSS) at pH7.4. All solutions were kept at 4°C for 96 hours and each solution was then analyzed by HPLC at 12, 24, 48, 72 and 96 hours to determine the hydrolysis product.

Caco-2 cell monolayers = experiment: Transport across Caco-2 cell monolayers, apical to basolateral; assay type: in vitro ADME, human; conditions: for Papp at 53 μM / Papp at 106 μM: apical to basolateral, pH7.4, mean (SD), n = 3
Experimental: (§1) Caco-2 cells were maintained in a DMEM at pH7.4, supplemented with 10% fetal bovine serum, 2 mM L-glutamine, 1% non-essential amino acid solution and 0.1% penicillin-streptomycin solution in a humidified atmosphere (5% CO2, 95% air, at 37°C). Cells were grown until 60-70% confluence. Cells from passages 20-40 were used for all experiments. Cells were seeded on tissue culture polycarbonate membrane filters (pore size: 3.0 μm) in 6-well Transwell plates (Corning, USA) at a seeding density of 2 × 10^4cells/cm^2. Culture medium was added to both the donor and the acceptor compartments. Medium was changed every two days. Cells were left to differentiate for 15-21 days after seeding with monitoring of trans-epithelial electrical resistance (TEER) values with a Millicell electrical resistance system (Millipore, USA) and the value should be higher than 600Ω.cm^2.
(§2) Transport experiment across the Caco-2 cell monolayers at pH7.4 was performed. Caco-2 cell monolayers in Transwell (6-well) plates were used for transport studies when they were differentiated and the monolayer was intact, as checked by measuring TEER. Prior to the experiment, the cells were washed twice with phosphate buffered saline (PBS) and pre-equilibrated for one hour with HBSS buffered with 30 mM n-(2-hydroxyethyl) piperazine-n-(2-ethanosulfonic acid) (HEPES) at pH7.4. After medium was removed, the cells were treated with sample solutions (concentrations of 53 μM and 106 μM in HBSS at pH7.4) in an apical compartment. Samples (1 mL) were taken under sink conditions at 0, 5, 20, 40, 60, 80 and 100 minutes from the basolateral side and replaced with an equal volume of fresh HBSS solution. The amount of the compounds from the basolateral side was determined on a UV-spectrophotometer (Thermo Scientific, USA) at 228 nm. Results were expressed as cumulative transport as a function of time. Apparent permeability coefficient was calculated according to the following equation: […]
(§3) where Papp is the apparent permeability coefficient (cm/s), dQ/dt (μg/s) is the rate of appearance of sample on the basolateral side, A is the surface area of the monolayer (cm^2) and C0 (μg/mL) is the initial drug concentration in the donor compartment. All rate constants were obtained from the permeation profiles of each compound. Statistical significance was evaluated with one-way analysis of variance (one-way ANOVA). A value of P < 0.05 was considered statistically significant.

[2] = as above; assay type: in vitro ADME, human; conditions: human, Caco-2, pH 7.4; for Papp at 100 min, 53 μM: read-out: apparent permeability coefficient Papp at 53 μM; for Papp at 100 min, 106 μM: read-out: apparent permeability coefficient Papp at 106 μM
Experimental: as §1, §2, §3

[3] = set-up: method as in PMID 17691048; conditions: human vero cell line, cited from earlier work
porcine liver esterase = experiment: Enzyme hydrolysis by porcine liver esterase, monitored by HPLC; assay type: in vitro ADME; conditions: 10 μM, 37°C
Experimental: Compound 1 (2 mL, 10 μM solution) was pre-incubated at 37°C and 200 μL of esterase enzyme (porcrine liver, 750 units) was added. Samples (200 μL each) were taken at 5, 10, 20, 30 and 60 minutes and added to 200 μL of methanol. Mixtures were vortexed to stop enzymatic activity. Samples were then centrifuged for five minutes at 14,000 × g (Lab Essentials, USA). Supernatant was injected to the HPLC system for the determination of ester pro-drugs and compound D. This procedure was repeated for compounds 2 and 3.

[4] = system: Mycobacterium tuberculosis H37Ra; set-up: method as in PMID 17691048; conditions: cited from earlier work
[5] = system: uterus of non-pregnant rat; set-up: method as in PMID 3671553; conditions: cited from earlier work
[6] = system: carrageenan-induced rat paw edema; set-up: method as in doi:10.1055/s-2006-961309; conditions: compound D from a hexane extract of Z. cassumunar; cited from earlier work
[7] = system: herpes simplex virus (HSV-1); set-up: method as in PMID 17691048; conditions: vero cell line; cited from earlier work
[8] = apical to basolateral direction

SMILES	time after which hydrolysis product compound D was detected by HPLC [1] [h]	hydrolysis during the transport across Caco-2 cell monolayers (Caco-2 cell monolayers)	Papp at 53 μM (Caco-2 cell monolayers; 53 μM)	Papp at 106 μM (Caco-2 cell monolayers)	Papp at 100 min, 53 μM [2] [×10⁻⁶ cm/s]	Papp at 100 min, 106 μM [2] [×10⁻⁶ cm/s]	cytotoxicity IC50 [3] [µg/mL]	time in which the ester hydrolysis was completed (porcine liver esterase) [min]	Minimal inhibitory concentration [4] [µg/mL]	cumulative transport at 53 μM (Caco-2 cell monolayers; 53 μM, apical to basolateral direction)	cumulative transport at 106 μM (Caco-2 cell monolayers; [8])	uterine relaxant effect [5]	effect on edema formation [6]	cytotoxicity ([3]; at anti-HSV-1 IC50)	anti-HSV-1 IC50 [7] [µg/mL]
CCCCCCCCCCCCCCCC(=O)OCC/C=C/c1ccc(OC)c(OC)c1 [Compound 3, (E)-4-(3,4-dimethoxyphenyl)but-3-en-1-yl palmitate]	24	did not occur	7.48 (0.31)** 10^-6cm/s	8.60 (0.55)** 10^-6cm/s	7.48	8.6	38	≤ 10	200 (≈ 448 µM)						
CCCCC/C=C\C/C=C\CCCCCCCC(=O)OCC/C=C/c1ccc(OC)c(OC)c1 [Compound 1, (E)-4-(3,4-dimethoxyphenyl)but-3-en-1-yl linoleate]	24	did not occur	13.94 (0.60) 10^-6cm/s	14.33 (0.17) 10^-6cm/s	13.9	14.3		≤ 10	200 (≈ 425 µM)	highest cumulative transport	higher cumulative transport over other two fatty acid ester				
COc1ccc(/C=C/CCO)cc1OC [Compound D, (E)-4-(3,4-dimethoxyphenyl)but-3-en-1-ol]			8.53 (0.83)** 10^-6cm/s	16.38 (0.61)** 10^-6cm/s	8.53	16.4					cumulative transport close to compound 3	dose dependent uterine relaxant effect	potent inhibitory effect on edema formation		
CCCCCCCC/C=C\CCCCCCCC(=O)OCC/C=C/c1ccc(OC)c(OC)c1 [Compound 2, (E)-4-(3,4-dimethoxyphenyl)but-3-en-1-yl oleate]	24	did not occur	9.45 (0.29) 10^-6cm/s	10.08 (0.32) 10^-6cm/s	9.45	10.1		≤ 10	100 (≈ 212 µM)					without cytotoxicity	42.6

— article PMC2759945, “Cellular transport of anti-inflammatory pro-drugs originated from a herbal formulation of Zingiber cassumunar and Nigella sativa” (Chinese Medicine, 2009)
